The target in experiment [1] is T1, baculovirus-expressed ALK (Homo sapiens, UniProt Q9UM73).
T1 construct: host or cells: baculovirus expression system
Description: ALK Kinase Assay (ELISA-type, time-resolved fluorescence). It is filed as biochemical. To be noted: ALK kinase inhibition, 1 μM ATP; read-out: ALK Activity. An outline of the steps: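 Plates coated with phospholipase C-γ substrate (10 μg/mL in TBS); reaction started with 30 ng/ml ALK and run 15 min at 37° C. Phosphorylated substrate detected with Eu-N1-labeled PT66 antibody. IC50 from sigmoidal variable-slope fit of percent inhibition vs log concentration.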

Experiment [2] deals with T2, c-Met (cytoplasmic domain) (Homo sapiens, UniProt P08581).
T2 construct: 10 ng/mL c-Met (cytoplasmic domain, Invitrogen Corporation #PV3143); purchased Invitrogen Corporation PV3143
T2 sequence (P08581 956-1390 limits assumed): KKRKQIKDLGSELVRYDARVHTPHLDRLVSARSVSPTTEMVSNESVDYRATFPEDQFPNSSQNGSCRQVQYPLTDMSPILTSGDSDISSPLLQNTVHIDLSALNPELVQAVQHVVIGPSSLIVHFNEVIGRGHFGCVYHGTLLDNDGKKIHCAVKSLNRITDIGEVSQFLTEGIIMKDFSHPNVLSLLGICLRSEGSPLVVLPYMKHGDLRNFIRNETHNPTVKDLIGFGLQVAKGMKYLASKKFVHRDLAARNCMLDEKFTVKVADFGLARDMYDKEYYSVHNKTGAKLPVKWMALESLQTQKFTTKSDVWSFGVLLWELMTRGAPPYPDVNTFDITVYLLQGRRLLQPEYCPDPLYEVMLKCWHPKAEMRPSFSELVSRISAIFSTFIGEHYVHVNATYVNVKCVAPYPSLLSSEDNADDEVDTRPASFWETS
Description: c-Met Kinase Assay (same methods as for ALK, with modifications). The experiment is classed as biochemical. To be noted: c-Met kinase inhibition, 1 μM ATP; read-out: cMet Activity. An outline of the steps: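 Plates were coated with phospholipase C-γ substrate (10 μg/mL) in TBS, and the reaction was started with 10 ng/mL c-Met cytoplasmic domain and run 15 min at 37 °C. Phosphoproduct was detected with Eu-N1-labelled PT66 antibody. IC50 came from a variable-slope sigmoidal fit of percent inhibition vs log concentration.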

T1 sequence (Q9UM73 19-1620): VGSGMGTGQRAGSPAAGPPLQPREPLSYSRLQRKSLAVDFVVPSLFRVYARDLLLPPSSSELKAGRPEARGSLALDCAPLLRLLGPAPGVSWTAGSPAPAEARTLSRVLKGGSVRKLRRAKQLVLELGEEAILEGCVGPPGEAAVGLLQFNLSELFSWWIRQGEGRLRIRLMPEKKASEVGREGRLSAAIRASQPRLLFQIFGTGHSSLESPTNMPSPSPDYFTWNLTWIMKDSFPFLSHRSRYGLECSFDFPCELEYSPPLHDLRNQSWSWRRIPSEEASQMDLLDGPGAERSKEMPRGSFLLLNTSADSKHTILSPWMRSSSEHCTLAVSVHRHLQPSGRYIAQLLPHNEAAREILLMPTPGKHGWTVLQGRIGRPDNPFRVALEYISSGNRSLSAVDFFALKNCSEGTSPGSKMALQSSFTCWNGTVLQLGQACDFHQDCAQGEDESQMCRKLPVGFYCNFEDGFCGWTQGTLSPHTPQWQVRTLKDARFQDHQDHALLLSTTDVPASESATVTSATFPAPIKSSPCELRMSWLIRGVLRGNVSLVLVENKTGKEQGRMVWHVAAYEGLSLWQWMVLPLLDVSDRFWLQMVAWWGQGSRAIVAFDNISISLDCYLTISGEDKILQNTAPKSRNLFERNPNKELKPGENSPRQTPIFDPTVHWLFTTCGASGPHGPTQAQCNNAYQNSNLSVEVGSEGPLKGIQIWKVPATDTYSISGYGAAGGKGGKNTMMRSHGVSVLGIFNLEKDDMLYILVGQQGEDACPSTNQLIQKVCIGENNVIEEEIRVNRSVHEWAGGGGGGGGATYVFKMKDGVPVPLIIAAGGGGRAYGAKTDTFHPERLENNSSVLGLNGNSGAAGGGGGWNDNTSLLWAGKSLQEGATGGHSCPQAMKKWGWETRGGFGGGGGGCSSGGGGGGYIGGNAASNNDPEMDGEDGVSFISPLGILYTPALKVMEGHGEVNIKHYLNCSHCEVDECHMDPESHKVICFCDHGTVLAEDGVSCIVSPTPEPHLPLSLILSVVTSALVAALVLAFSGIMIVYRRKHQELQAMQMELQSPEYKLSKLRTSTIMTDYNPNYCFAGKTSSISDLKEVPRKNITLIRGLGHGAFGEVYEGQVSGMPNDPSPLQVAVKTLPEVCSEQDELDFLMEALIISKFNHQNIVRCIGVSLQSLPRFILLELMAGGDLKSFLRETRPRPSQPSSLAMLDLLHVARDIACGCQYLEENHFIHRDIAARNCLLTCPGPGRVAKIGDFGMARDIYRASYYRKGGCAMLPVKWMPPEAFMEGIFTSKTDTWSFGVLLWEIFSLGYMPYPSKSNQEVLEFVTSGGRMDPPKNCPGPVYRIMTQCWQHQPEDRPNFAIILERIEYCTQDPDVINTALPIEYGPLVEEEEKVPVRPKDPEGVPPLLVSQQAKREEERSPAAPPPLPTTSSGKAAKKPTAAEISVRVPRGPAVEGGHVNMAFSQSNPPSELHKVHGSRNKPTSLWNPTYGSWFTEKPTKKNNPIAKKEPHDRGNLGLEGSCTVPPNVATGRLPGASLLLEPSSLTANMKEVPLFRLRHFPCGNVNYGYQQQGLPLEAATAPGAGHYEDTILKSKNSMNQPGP

Take `CN(C)CCN1CCCC(C)(C)c2ccc(Nc3ncc(Cl)c(N[C@H]4[C@@H](C(N)=O)[C@@H]5C=C[C@H]4C5)n3)cc21` [Example 1640, (1S,2S,3R,4R)-3-{5-Chloro-2-[1-(2-dimethylamino-ethyl)-5,5-dimethyl-2,3,4,5-tetrahydro-1H-benzo[b]azepin-8-ylamino]-pyrimidin-4-ylamino}-bicyclo[2.2.1]hept-5-ene-2-carboxylic acid amide]: the IC50 in experiment [1] and in experiment [2] was under 100 nM each time.

As to `COc1cc(N2CCOCC2)ccc1Nc1nc(Nc2ccc3c(c2)N(CCN(C)C)CCCC3(C)C)ncc1Cl` [Example 1641, 5-Chloro-N*2*-[1-(2-dimethylamino-ethyl)-5,5-dimethyl-2,3,4,5-tetrahydro-1H-benzo[b]azepin-8-yl]-N*4*-(2-methoxy-4-morpholin-4-yl-phenyl)-pyrimidine-2,4-diamine], the figures for the IC50 in experiment [1] and in experiment [2] were under 100 nM and 1000 to 10000 nM, respectively.

For the compound `CCN1C(=O)C(NC(=O)C(F)(F)F)CC(C)(C)c2ccc(Nc3ncc(Cl)c(Nc4c(F)cccc4C(=O)NC)n3)cc21` (stereo not drawn) [Example 1642, 2-{5-Chloro-2-[1-ethyl-5,5-dimethyl-2-oxo-3-(2,2,2-trifluoro-acetylamino)-2,3,4,5-tetrahydro-1H-benzo[b]azepin-8-ylamino]-pyrimidin-4-ylamino}-3-fluoro-N-methyl-benzamide], the IC50 in experiment [1] is 100 to 1000 nM; in experiment [2], under 100 nM.

`CCN1C(=O)C(NC(C)=O)CC(C)(C)c2ccc(Nc3ncc(Cl)c(Nc4c(F)cccc4C(=O)NC)n3)cc21` (stereo not drawn) [Example 1643, 2-[2-(3-Acetylamino-1-ethyl-5,5-dimethyl-2-oxo-2,3,4,5-tetrahydro-1H-benzo[b]azepin-8-ylamino)-5-chloro-pyrimidin-4-ylamino]-3-fluoro-N-methyl-benzamide]: the results for the IC50 in experiment [1] and in experiment [2] were 100 to 1000 nM and under 100 nM, respectively.

On to `CCN1C(=O)C(NC(=O)COC)CC(C)(C)c2ccc(Nc3ncc(Cl)c(Nc4c(F)cccc4C(=O)NC)n3)cc21` (stereo not drawn) [Example 1644, 2-{5-Chloro-2-[1-ethyl-3-(2-methoxy-acetylamino)-5,5-dimethyl-2-oxo-2,3,4,5-tetrahydro-1H-benzo[b]azepin-8-ylamino]-pyrimidin-4-ylamino}-3-fluoro-N-methyl-benzamide], for which the results for the IC50 in experiment [1] and in experiment [2] were 100 to 1000 nM and under 100 nM, respectively.

With `COc1cc2c(cc1Nc1ncc(Cl)c(N[C@@H]3CCCC[C@H]3NS(C)(=O)=O)n1)NC(=O)CN(Cc1ccccc1)C2` [Example 1651, N-{(1R,2R)-2-[2-(4-Benzyl-7-methoxy-2-oxo-2,3,4,5-tetrahydro-1H-benzo[e][1,4]diazepin-8-ylamino)-5-chloro-pyrimidin-4-ylamino]-cyclohexyl}-methanesulfonamide], the IC50 in experiment [1] was under 100 nM; in experiment [2], over 10000 nM.

Take `COc1cc2c(cc1Nc1ncc(Cl)c(NC3C4C=CC(C4)C3C(N)=O)n1)NC(=O)CN(Cc1ccccc1)C2` (stereo not drawn) [Example 1652, 3-[2-(4-Benzyl-7-methoxy-2-oxo-2,3,4,5-tetrahydro-1H-benzo[e][1,4]diaz-epin-8-ylamino)-5-chloro-pyrimidin-4-ylamino]-bicyclo[2.2.1]hept-5-ene-2-carboxylic acid amide]: the IC50 in experiment [1] is under 100 nM; in experiment [2] it was over 10000 nM.

On to `CCNC(=O)c1ccccc1Nc1nc(Nc2cc3c(cc2OC)CN(Cc2ccccc2)CC(=O)N3)ncc1Cl` [Example 1653, 2-[2-(4-Benzyl-7-methoxy-2-oxo-2,3,4,5-tetrahydro-1H-benzo[e][1,4]diazepin-8-ylamino)-5-chloro-pyrimidin-4-ylamino]-N-ethyl-benzamide], for which the IC50 in experiment [1] was under 100 nM; in experiment [2], 1000 to 10000 nM.

For the compound `COc1ccc2c(c1Nc1ncc(Cl)c(N[C@@H]3CCCC[C@H]3NS(C)(=O)=O)n1)CN(Cc1ccccc1)CC(=O)N2` [Example 1654, N-{(1R,2R)-2-[2-(4-Benzyl-7-methoxy-2-oxo-2,3,4,5-tetrahydro-1H-benzo[e][1,4]diazepin-6-ylamino)-5-chloro-pyrimidin-4-ylamino]-cyclohexyl}-methanesulfonamide], the results for the IC50 in experiment [1] and in experiment [2] were 1000 to 10000 nM and over 10000 nM, respectively.
